According to patent US20130023504A1, “Modulation of Prostaglandin/Cyclooxygenase Metabolic Pathways” (HUNTER-FLEMING LIMITED, priority 2006, published 2013):

What was measured:
[1] = system: control rats without colitis; experiment: Colonic prostaglandin levels and COX-2/PG synthase mRNA in control rats without colitis; assay type: in vivo, rat
Protocol: After a 7-day adaptation period, animals were divided into two control groups (sham-control and 7β-hydroxy-EPIA-treated control group and two colitis groups (colitis and 7β-hydroxy-EPIA-treated colitis). 7β-Hydroxy-EPIA (0.01, 0.1, and 1 mg/kg body weight dissolved in DMSO) or DMSO alone (vehicle) was administered i.p. once a day for 7 days, from day 0 to day 7. Colitis was induced from day 7 to 14 by addition of DSS (molecular weight 36-50 kDa; MP Biomedicals, France) to drinking water. The two control groups received tap water only.
Commercially available EIA kits were used for the determination of PGE2 levels (Oxford Biomedical Research, UK) and 15d-PGJ2 levels (Assay designs, Euromedex, France) in colonic supernatants obtained from fresh homogenates. Measurement of PGD2 levels was obtained using the prostaglandin D2-MOX EIA kit (Cayman Chemical, Euromedex). In this case, and prior to assay, the fresh samples were immediately treated with the MOX-HCl reagent which converted PGD2 into PGD2-MOX, thus preventing any further chemical degradation.
Total RNA from fresh colonic samples (300 mg) was extracted using Trizol Reagent (Invitrogen, Cergy-Pontoise, France). Poly(A) RNA was purified from total RNA with MicroPoly(A)Purist kit (Ambion, Huntingdon, UK). cDNA was synthesized using the Superscript first strand synthesis system kit (Invitrogen). Real-time PCR was performed using mixtures (25 μL) containing 2.5× RealMaster Mix/20×SYBR solution (11.25 μL) (Eppendorf, Le Pecq, France) and 300 nM forward and reverse primers. Reactions were run on a RealPlex ep gradient S mastercycler (Eppendorf). The cycling conditions were at 95° C. for 10 minutes and 40 cycles at 95° C., 55° C. and 68° C. for 15 seconds, 30 seconds and 30 seconds, respectively. Each assay included a standard curve of four serial dilution points of control cDNA. Oligonucleotide primers were synthesized by Genecust/Distribio (Evry, France). The specificity of the amplified product was monitored by examination of the product melting curve and confirmed by analysis on agarose gel electrophoresis. The levels of mRNA were expressed relative to that of the DMSO control, after normalization to HPRT1.

rat sensory neurones = experiment: Neurite growth of sensory neurones in primary culture (anti β-Tubulin, In Cell Analyzer); assay type: cell-based
Protocol: Rat sensory neurones were prepared according to the method described by Hall et al. 1997 (Hall A K, Ai X, Hickman G E, MacPhedran S E, Nduaguba C O, Robertson C P. The generation of neuronal heterogeneity in a rat sensory ganglion. J. Neurosci. 1997 Apr. 15; 17(8):2775-84). Briefly, female rats (15 days gestation) were killed by cervical dislocation (Rats Wistar; Janvier, Le Genest-St-Isle, France) and the foetuses removed from the uterus. Their spinal cords with the dorsal root ganglia (DRG) were removed and placed in ice-cold medium of Leibovitz (L15, Fisher 11415-049) containing Penicillin 50 Ul/ml-Streptomycin 50 pg/ml (PS, 1%) and bovine serum albuminutes (BSA 1%, Sigma A6003). The DRG were recovered and dissociated by trypsinisation for 20 minutes at 37° C. (trypsin EDTA 10×, 10%, Fisher 15400054) diluted in PBS without calcium and magnesium (Fisher 2007-03). The reaction was stopped by addition of Dulbecco modified Eagle medium (DMEM, Fisher 21969-035) containing DNase I grade II (0.1 mg/ml Roche diagnostic 104159) and foetal bovine serum (FBS 10%, Fisher 10270-098). The cell suspension was triturated with a 10 ml pipette and centrifuged at 350×g for 10 minutes at room temperature. The pellet of dissociated cells was then resuspended in defined culture medium.
Viable cells were counted in a Neubauer cytometer using the trypan blue exclusion test (Sigma) and seeded at a density of 25 000 cells/well in 96 well-plates (Nunc). Wells were pre-coated with poly-L-lysine (10 μg/ml, Sigma P2636) in ultra pure sterile water (Merck Eurolab 60759.01).
Cells were allowed to adhere for 2 hours and maintained in a humidified incubator at 37° C. in 5% CO2/95% air atmosphere.
The culture medium was changed into a defined culture medium after a 12 hours incubation period following the conditions described below:
NGF 50 ng/ml and 10 ng/ml (in 0.1% DMSO)
After 6 hours, 12 hours and 24 hours of incubation with 7β-OH EPIA, cells were fixed for 5 minutes in an ethanol/acetic acid solution (95%/5%) at −20° C. and rinsed 3 times in PBS.
Motor neurones and sensory neurones were labelled by monoclonal anti β-Tubulin antibody (Sigma T8660) diluted at 1:400 in incubation solution (PBS with 5% of FCS and 0.1% of saponin, Sigma S-7900). This antibody specifically labels neurone cell bodies and neurites.
After 2 hours of incubation, the cells were washed in PBS and incubated with Alexa Fluor 488 goat anti mouse IgG (Molecular Probes A11001) diluted at 1:300 in incubation solution to reveal the 8-Tubulin III antibodies.
Analysis of the total length of neurones labelled with anti β-Tubulin antibodies (neurones) were carried out using In Cell Analyzer 1000 3.2.Workstation software.
The results were expressed in percentage compared to the vehicle. Comparison of groups was carried out using the unpaired T test.

CC12CCC3C(C1CCC2=O)[C@@H](O)C[C@H]1C[C@@H](O)CCC31C (stereo partly drawn) [Compound 7β-OH-EPIA, 7β-hydroxy-EPIAndrosterone]
increase of colonic 15d-PGJ2 above basal levels ([1]; 0.1 mg/kg day 0 to day 7, day 2): 51 fold | increase in COX-2 mRNA levels ([1]; 0.1 mg/kg, at 15 h): 1.5 fold | mPGES-1 mRNA expression ([1]; 0.1 mg/kg, between 6 h and 15 h): increased transiently | H-PGDS mRNA synthesis ([1]; 0.1 mg/kg, course of the experiment): remained unchanged | PGE2 and PGD2 colonic tissue levels ([1]; control rats without colitis): did not alter | Neurites length per field, % Vehicle (rat sensory neurones; 10^−4 M, 6 hours): 101% | Neurites length per field, Mean (rat sensory neurones; 10^−4 M, 6 hours): 103.2 μm | Neurites length per field, % Vehicle (rat sensory neurones; 10^−4 M, 12 hours): 97% | Neurites length per field, Mean (rat sensory neurones; 10^−4 M, 12 hours): 290.3 μm | Neurites length per field, % Vehicle (rat sensory neurones; 10^−4 M, 24 hours): 104% | Neurites length per field, Mean (rat sensory neurones; 10^−4 M, 24 hours): 228.6 μm | Neurites length per field, % Vehicle (rat sensory neurones; 10^−5 M, 6 hours): 112% | Neurites length per field, Mean (rat sensory neurones; 10^−5 M, 6 hours): 114.8 μm | Neurites length per field, % Vehicle (rat sensory neurones; 10^−5 M, 12 hours): 108% | Neurites length per field, Mean (rat sensory neurones; 10^−5 M, 12 hours): 321.0 μm | Neurites length per field, % Vehicle (rat sensory neurones; 10^−5 M, 24 hours): 111% | Neurites length per field, Mean (rat sensory neurones; 10^−5 M, 24 hours): 244.8 μm | Neurites length per field, % Vehicle (rat sensory neurones; 10^−6 M, 6 hours): 96% | Neurites length per field, Mean (rat sensory neurones; 10^−6 M, 6 hours): 97.7 μm | Neurites length per field, % Vehicle (rat sensory neurones; 10^−6 M, 12 hours): 96% | Neurites length per field, Mean (rat sensory neurones; 10^−6 M, 12 hours): 287.0 μm | Neurites length per field, % Vehicle (rat sensory neurones; 10^−6 M, 24 hours): 86% | Neurites length per field, Mean (rat sensory neurones; 10^−6 M, 24 hours): 189.9 μm | Neurites length per field, % Vehicle (rat sensory neurones; 10^−7 M, 6 hours): 149% | Neurites length per field, Mean (rat sensory neurones; 10^−7 M, 6 hours): 151.8 μm | Neurites length per field, % Vehicle (rat sensory neurones; 10^−7 M, 6 hours, listed as 7β-OH EPIA): 171% | Neurites length per field, % Vehicle (rat sensory neurones; 10^−7 M, 12 hours): 134% | Neurites length per field, Mean (rat sensory neurones; 10^−7 M, 12 hours): 398.4 μm | Neurites length per field, % Vehicle (rat sensory neurones; 10^−7 M, 24 hours): 173% | Neurites length per field, Mean (rat sensory neurones; 10^−7 M, 24 hours): 380.8 μm | Neurites length per field, % Vehicle (rat sensory neurones; 10^−8 M, 6 hours): 176% | Neurites length per field, Mean (rat sensory neurones; 10^−8 M, 6 hours): 179.3 μm | Neurites length per field, % Vehicle (rat sensory neurones; 10^−8 M, 12 hours): 123% | Neurites length per field, Mean (rat sensory neurones; 10^−8 M, 12 hours): 368.3 μm | Neurites length per field, % Vehicle (rat sensory neurones; 10^−8 M, 24 hours): 174% | Neurites length per field, Mean (rat sensory neurones; 10^−8 M, 24 hours): 384.3 μm | Neurites length per field, % Vehicle (rat sensory neurones; 10^−9 M, 6 hours): 171% | Neurites length per field, Mean (rat sensory neurones; 10^−9 M, 6 hours): 174.2 μm | Neurites length per field, % Vehicle (rat sensory neurones; 10^−9 M, 6 hours, listed as 7β-OH EPIA): 149% | Neurites length per field, % Vehicle (rat sensory neurones; 10^−9 M, 12 hours): 145% | Neurites length per field, Mean (rat sensory neurones; 10^−9 M, 12 hours): 431.8 μm | Neurites length per field, % Vehicle (rat sensory neurones; 10^−9 M, 24 hours): 147% | Neurites length per field, Mean (rat sensory neurones; 10^−9 M, 24 hours): 324.9 μm
